Data: patent US20230079819A1, “COMPOUNDS AND USES THEREOF” (Foghorn Therapeutics Inc., priority 2019, published 2023)

Columns and labels:
BRM = target: T1, BRM (Homo sapiens, UniProt P51531); experiment: ATPase catalytic activity of BRM, ADP-Glo in vitro biochemical assay; conditions: ATPase catalytic activity, 30 nM BRM, 400 μM ATP, read-out: BRM IP50
T1 construct: made in house; host or cells: High Five insect cells

BRG-1 = target: T2, BRG-1 (Homo sapiens, UniProt P51532); experiment: ATPase catalytic activity of BRG-1, ADP-Glo in vitro biochemical assay; conditions: ATPase catalytic activity, 30 nM BRG-1, 400 μM ATP, read-out: BRG1 IP50
T2 construct: made in house; host or cells: High Five insect cells
T2 sequence (P51532 whole entry): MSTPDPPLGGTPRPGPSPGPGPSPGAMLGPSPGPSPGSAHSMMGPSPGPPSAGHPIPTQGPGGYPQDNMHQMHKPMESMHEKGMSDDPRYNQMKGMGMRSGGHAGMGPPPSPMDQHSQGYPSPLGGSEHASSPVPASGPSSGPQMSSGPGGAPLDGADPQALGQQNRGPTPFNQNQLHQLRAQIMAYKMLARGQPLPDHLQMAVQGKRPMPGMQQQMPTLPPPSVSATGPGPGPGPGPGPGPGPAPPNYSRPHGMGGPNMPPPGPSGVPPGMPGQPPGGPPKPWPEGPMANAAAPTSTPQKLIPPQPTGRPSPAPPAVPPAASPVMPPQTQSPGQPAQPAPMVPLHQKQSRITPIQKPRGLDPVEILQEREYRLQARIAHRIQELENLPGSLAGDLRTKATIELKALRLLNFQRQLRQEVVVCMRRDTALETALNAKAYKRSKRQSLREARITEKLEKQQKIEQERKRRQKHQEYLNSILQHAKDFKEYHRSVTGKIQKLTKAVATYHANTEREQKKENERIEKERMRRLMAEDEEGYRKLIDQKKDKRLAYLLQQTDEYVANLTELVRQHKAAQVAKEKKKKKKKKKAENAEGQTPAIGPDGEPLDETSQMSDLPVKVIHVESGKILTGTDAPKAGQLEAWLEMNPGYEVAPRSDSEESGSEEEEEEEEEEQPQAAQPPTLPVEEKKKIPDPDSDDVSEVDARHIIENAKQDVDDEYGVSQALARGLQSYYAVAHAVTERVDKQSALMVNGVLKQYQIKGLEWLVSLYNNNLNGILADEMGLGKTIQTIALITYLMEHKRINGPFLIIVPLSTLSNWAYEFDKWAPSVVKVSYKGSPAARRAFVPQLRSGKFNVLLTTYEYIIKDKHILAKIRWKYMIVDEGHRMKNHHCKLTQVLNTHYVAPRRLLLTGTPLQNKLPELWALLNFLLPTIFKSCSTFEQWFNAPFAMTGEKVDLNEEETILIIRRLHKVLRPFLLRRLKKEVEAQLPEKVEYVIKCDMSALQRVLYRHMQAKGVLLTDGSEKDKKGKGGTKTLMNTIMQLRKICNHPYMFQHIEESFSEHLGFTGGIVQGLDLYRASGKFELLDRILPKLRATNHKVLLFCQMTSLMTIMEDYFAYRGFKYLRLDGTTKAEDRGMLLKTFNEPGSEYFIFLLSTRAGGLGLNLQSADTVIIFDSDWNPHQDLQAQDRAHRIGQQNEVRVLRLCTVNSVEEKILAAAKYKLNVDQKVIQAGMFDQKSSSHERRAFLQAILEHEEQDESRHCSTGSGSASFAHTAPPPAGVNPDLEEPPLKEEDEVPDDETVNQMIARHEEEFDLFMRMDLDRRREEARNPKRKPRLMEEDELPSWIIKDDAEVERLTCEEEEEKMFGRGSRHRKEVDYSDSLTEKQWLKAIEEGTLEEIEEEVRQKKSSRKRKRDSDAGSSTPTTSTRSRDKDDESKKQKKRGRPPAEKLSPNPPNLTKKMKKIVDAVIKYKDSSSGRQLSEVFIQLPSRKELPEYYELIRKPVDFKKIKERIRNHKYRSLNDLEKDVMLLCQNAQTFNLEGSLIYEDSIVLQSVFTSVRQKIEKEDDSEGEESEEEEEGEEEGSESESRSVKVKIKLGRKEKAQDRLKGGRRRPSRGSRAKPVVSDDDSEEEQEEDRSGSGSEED

T1 sequence (P51531 whole entry): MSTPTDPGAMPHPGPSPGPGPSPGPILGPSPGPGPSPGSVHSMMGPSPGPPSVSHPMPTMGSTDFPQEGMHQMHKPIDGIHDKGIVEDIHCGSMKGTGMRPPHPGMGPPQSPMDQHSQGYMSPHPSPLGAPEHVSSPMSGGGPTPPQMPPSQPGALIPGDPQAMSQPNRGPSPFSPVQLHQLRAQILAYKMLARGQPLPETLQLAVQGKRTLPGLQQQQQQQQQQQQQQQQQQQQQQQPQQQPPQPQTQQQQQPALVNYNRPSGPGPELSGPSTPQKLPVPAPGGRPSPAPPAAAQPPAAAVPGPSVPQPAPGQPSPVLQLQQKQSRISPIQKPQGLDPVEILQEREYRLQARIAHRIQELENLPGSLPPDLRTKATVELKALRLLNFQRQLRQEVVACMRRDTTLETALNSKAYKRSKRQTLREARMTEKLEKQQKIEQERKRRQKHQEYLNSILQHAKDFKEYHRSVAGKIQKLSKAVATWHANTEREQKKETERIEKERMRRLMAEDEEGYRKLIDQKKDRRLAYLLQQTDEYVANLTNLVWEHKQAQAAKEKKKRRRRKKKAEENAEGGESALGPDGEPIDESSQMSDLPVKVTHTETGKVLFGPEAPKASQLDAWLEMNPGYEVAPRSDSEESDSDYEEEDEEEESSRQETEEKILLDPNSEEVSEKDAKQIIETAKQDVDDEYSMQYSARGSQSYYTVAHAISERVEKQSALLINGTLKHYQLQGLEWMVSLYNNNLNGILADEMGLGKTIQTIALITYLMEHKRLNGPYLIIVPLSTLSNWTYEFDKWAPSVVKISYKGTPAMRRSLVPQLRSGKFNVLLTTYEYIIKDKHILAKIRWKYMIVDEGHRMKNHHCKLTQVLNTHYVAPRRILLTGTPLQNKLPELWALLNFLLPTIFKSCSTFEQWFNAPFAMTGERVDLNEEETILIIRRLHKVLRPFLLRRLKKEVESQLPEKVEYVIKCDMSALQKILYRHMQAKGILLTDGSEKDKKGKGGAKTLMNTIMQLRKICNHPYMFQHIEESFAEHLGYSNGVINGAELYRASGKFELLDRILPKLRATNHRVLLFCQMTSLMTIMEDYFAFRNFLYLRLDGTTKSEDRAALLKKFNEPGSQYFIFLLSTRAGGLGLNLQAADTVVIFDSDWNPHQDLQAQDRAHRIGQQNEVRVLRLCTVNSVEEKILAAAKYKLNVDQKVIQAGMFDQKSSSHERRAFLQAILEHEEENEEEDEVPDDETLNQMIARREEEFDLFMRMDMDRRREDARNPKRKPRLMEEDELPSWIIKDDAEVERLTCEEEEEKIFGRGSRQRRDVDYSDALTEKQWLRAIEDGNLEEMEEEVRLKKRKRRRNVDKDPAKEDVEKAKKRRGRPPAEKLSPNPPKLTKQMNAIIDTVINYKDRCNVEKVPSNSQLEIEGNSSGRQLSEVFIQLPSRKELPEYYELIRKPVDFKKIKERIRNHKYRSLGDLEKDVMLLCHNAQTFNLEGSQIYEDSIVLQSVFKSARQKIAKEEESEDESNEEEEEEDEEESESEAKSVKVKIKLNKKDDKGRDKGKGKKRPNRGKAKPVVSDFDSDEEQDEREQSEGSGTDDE

Row | Compound | IC50 (BRM) | IC50 (BRG-1)
1 | C[C@@H]1CN(c2cccc(-c3csc(NC(=O)CNC(=O)c4ccn(S(C)(=O)=O)c4)n3)c2)CC[C@H]1O [Compound 423] | < 10 nM | < 10 nM
2 | Cc1cc(-c2cccc(-c3csc(NC(=O)CNC(=O)c4ccn(C(C)(C)C)c4)n3)c2)no1 [Compound 425] | > 10 nM | > 10 nM
3 | CC(C)(O)C#Cc1cccc(-c2csc(NC(=O)CNC(=O)c3ccn(S(C)(=O)=O)c3)n2)c1 [Compound 426] | > 10 nM | > 10 nM
4 | COCC1CN(c2cccc(-c3csc(NC(=O)CNC(=O)c4ccn(S(C)(=O)=O)c4)n3)c2)C1 [Compound 427] | > 10 nM | > 10 nM
5 | COC[C@H](NC(=O)c1ccn(S(C)(=O)=O)c1)C(=O)Nc1nc(-c2ccc3ccn(C)c(=O)c3c2)cs1 [Compound 430] | < 10 nM | < 10 nM
6 | CC(C)(C)n1ccc(C(=O)NCC(=O)Nc2nc(-c3cccc(C4CCCCO4)c3)cs2)c1 (stereo not drawn) [Compound 432] | > 10 nM | > 10 nM
7 | CN1CCn2nc(-c3cccc(-c4csc(NC(=O)CNC(=O)c5ccn(S(C)(=O)=O)c5)n4)c3)cc2C1=O [Compound 433] | > 10 nM | > 10 nM
8 | CC(C)(N)Cn1ccc(-c2cccc(-c3csc(NC(=O)CNC(=O)c4ccn(C(C)(C)C)c4)n3)c2)n1 [Compound 434] | > 10 nM | > 10 nM
9 | CNC(=O)C1(c2cc(-c3cccc(-c4csc(NC(=O)CNC(=O)c5ccn(S(C)(=O)=O)c5)n4)c3)ccn2)CC1 [Compound 435] | < 10 nM | < 10 nM
10 | COC[C@H](NC(=O)c1ccn(S(C)(=O)=O)c1)C(=O)Nc1nc(-c2cccc(-c3cc(C)no3)c2)cs1 [Compound 436] | > 10 nM | > 10 nM
11 | CN1CCn2nc(-c3cccc(-c4csc(NC(=O)CNC(=O)c5ccn(C(C)(C)C)c5)n4)c3)cc2C1=O [Compound 437] | > 100 nM | > 100 nM
12 | COC[C@H](NC(=O)c1ccn(S(C)(=O)=O)c1)C(=O)Nc1nc(-c2cccc(-c3ccnc(Cl)c3)c2)cs1 [Compound 438] | < 10 nM | < 10 nM
13 | CN(C)C(=O)C1(c2cc(-c3cccc(-c4csc(NC(=O)CNC(=O)c5ccn(S(C)(=O)=O)c5)n4)c3)ccn2)CC1 [Compound 439] | < 10 nM | < 10 nM
14 | CC(C)(C)n1ccc(C(=O)NCC(=O)Nc2nc(-c3cccc(N4CCN(C5COC5)CC4)n3)cs2)c1 [Compound 440] | > 10 nM | > 10 nM
15 | CC(=O)NCCOc1cc(-c2cccc(-c3csc(NC(=O)CNC(=O)c4ccn(S(C)(=O)=O)c4)n3)c2)ccn1 [Compound 441] | < 10 nM | < 10 nM
16 | CS(=O)(=O)n1ccc(C(=O)NCC(=O)Nc2nc(-c3cccc(-c4ccnc(OCCN)c4)c3)cs2)c1 [Compound 442] | < 10 nM | < 10 nM
17 | COC[C@H](NC(=O)c1ccn(S(C)(=O)=O)c1)C(=O)Nc1nc(-c2cccc(-c3ccnc(OC)c3)c2)cs1 [Compound 443] | < 10 nM | > 10 nM
18 | COC[C@@H](NC(=O)c1ccn(S(C)(=O)=O)c1)C(=O)Nc1nc(-c2cccc(-c3ccnc(OC)c3)c2)cs1 [Compound 444] | > 100 nM | > 100 nM
19 | CS(=O)(=O)n1ccc(C(=O)NCC(=O)Nc2nc(-c3cccc(N4CC5CCC(C4)O5)c3)cs2)c1 [Compound 445] | > 10 nM | > 100 nM

Row | Compound | IC50 (BRM) | IC50 (BRG-1)
20 | Cn1cc2c(n1)CCN(c1cccc(-c3csc(NC(=O)CNC(=O)c4ccn(S(C)(=O)=O)c4)n3)c1)C2 [Compound 446] | > 10 nM | > 10 nM
21 | Cn1cc(-c2cccc(-c3csc(NC(=O)CNC(=O)c4ccn(S(C)(=O)=O)c4)n3)c2)nn1 [Compound 447] | > 10 nM | > 10 nM
22 | CC(C)(C)n1ccc(C(=O)NCC(=O)Nc2nc(-c3cccc(N4CC(O)C4)c3)cs2)c1 [Compound 448] | > 10 nM | > 10 nM
23 | CS(=O)(=O)n1ccc(C(=O)NCC(=O)Nc2nc(-c3cccc(N4CCC(F)CC4)c3)cs2)c1 [Compound 449] | > 10 nM | > 10 nM
24 | CS(=O)(=O)n1ccc(C(=O)NCC(=O)Nc2nc(-c3cccc(N4CCO[C@H](CO)C4)c3)cs2)c1 [Compound 450] | > 10 nM | > 10 nM
25 | CS(=O)(=O)n1ccc(C(=O)NCC(=O)Nc2nc(-c3cccc(N4CCN(C5COC5)CC4)c3)cs2)c1 [Compound 451] | > 100 nM | > 100 nM
26 | CS(=O)(=O)n1ccc(C(=O)NCC(=O)Nc2nc(-c3cccc(N4CCO[C@@H](CO)C4)c3)cs2)c1 [Compound 452] | > 10 nM | > 10 nM
27 | COC[C@H](NC(=O)c1ccn(C2(C)COC2)c1)C(=O)Nc1nc(-c2ccc3ccn(C)c(=O)c3c2)cs1 [Compound 453] | > 10 nM | > 10 nM
28 | CS(=O)(=O)n1ccc(C(=O)NCC(=O)Nc2nc(-c3cc(F)cc(OC4CC4)c3)cs2)c1 [Compound 455] | > 10 nM | > 10 nM
29 | C[C@@H]1CN(c2cccc(-c3csc(NC(=O)CNC(=O)c4ccn(C5(C#N)CC5)c4)n3)n2)C[C@H](C)O1 [Compound 458] | < 10 nM | > 10 nM
30 | COC[C@H](NC(=O)c1ccn(S(C)(=O)=O)c1)C(=O)Nc1nc(-c2cccc(OC(F)(F)F)c2)cs1 [Compound 459] | > 10 nM | > 10 nM
31 | CS(=O)(=O)n1ccc(C(=O)NCC(=O)Nc2nc(-c3cccc(N4CCC(N)C(F)(F)C4)c3)cs2)c1 (stereo not drawn) [Compound 460] | > 10 nM | > 10 nM
32 | COC[C@H](NC(=O)c1ccn(S(C)(=O)=O)c1)C(=O)Nc1nc(-c2cccc(N3CCC3)c2)c(F)s1 [Compound 461] | > 100 nM | > 100 nM
33 | COC[C@H](NC(=O)c1ccn(S(C)(=O)=O)c1)C(=O)Nc1nc(-c2cccc(-c3ccn(C)n3)c2)cs1 [Compound 462] | > 10 nM | > 10 nM
34 | CS(=O)(=O)n1ccc(C(=O)NCC(=O)Nc2nc(-c3cccc(C(F)(F)F)c3)cs2)c1 [Compound 463] | > 10 nM | > 10 nM
35 | CC(C)(C)n1ccc(C(=O)NCC(=O)Nc2nc(-c3cccc(C4COC4)c3)cs2)c1 [Compound 464] | > 10 nM | > 100 nM
36 | CS(=O)(=O)n1ccc(C(=O)NCC(=O)Nc2nc(-c3cccc(C4COC4)c3)cs2)c1 [Compound 465] | > 10 nM | > 10 nM
37 | COC[C@H](NC(=O)c1ccn(S(C)(=O)=O)c1)C(=O)Nc1nc(-c2cccc(C3COC3)c2)cs1 [Compound 466] | > 10 nM | > 10 nM
38 | CS(=O)(=O)n1ccc(C(=O)NCC(=O)Nc2nc(-c3ccc4c(c3)N(C3CCOC3)CC4)cs2)c1 (stereo not drawn) [Compound 467] | > 10 nM | > 10 nM

Row | Compound | IC50 (BRM) | IC50 (BRG-1)
39 | CC(C)N1CCc2ccc(-c3csc(NC(=O)CNC(=O)c4ccn(S(C)(=O)=O)c4)n3)cc21 [Compound 469] | > 100 nM | > 100 nM
40 | Cn1ncc(-c2cccc(-c3csc(NC(=O)CNC(=O)c4ccn(C5(C)COC5)c4)n3)n2)n1 [Compound 470] | > 10 nM | > 100 nM
41 | C[C@@H]1CN(c2cccc(-c3csc(NC(=O)CNC(=O)c4ccn(S(C)(=O)=O)c4)n3)c2)[C@@H](C)CO1 [Compound 471] | > 100 nM | > 100 nM
42 | CS(=O)(=O)n1ccc(C(=O)NCC(=O)Nc2nc(-c3cccc(C4CC(F)(F)C4)c3)cs2)c1 [Compound 472] | > 10 nM | > 10 nM
43 | N#CC1(n2ccc(C(=O)NCC(=O)Nc3nc(-c4cccc(N5CCC5)n4)cs3)c2)CC1 [Compound 473] | > 10 nM | > 100 nM
44 | Cn1ccc2ccc(-c3csc(NC(=O)CNC(=O)c4ccn(C5(C#N)CC5)c4)n3)cc2c1=O [Compound 475] | < 10 nM | < 10 nM
45 | N#CC1(n2ccc(C(=O)NCC(=O)Nc3nc(-c4cccc(N5CCC5)c4)cs3)c2)CC1 [Compound 476] | > 10 nM | > 10 nM
46 | C[C@@H]1CN(c2cccc(-c3cccc(NC(=O)CNC(=O)c4ccn(S(C)(=O)=O)c4)c3F)c2)C[C@H](C)O1 [Compound 477, N-(2-((3′-(cis-2,6-dimethylmorpholino)-2-fluoro-[1,1′-biphenyl]-3-yl)amino)-2-oxoethyl)-1-(methylsulfonyl)-1H-pyrrole-3-carboxamide] | > 100 nM | > 100 nM
47 | CC1COc2ccc(-c3csc(NC(=O)CNC(=O)c4ccn(S(C)(=O)=O)c4)n3)cc2N1C (stereo not drawn) [Compound 478] | > 10 nM | > 10 nM
48 | CO[C@H]1C[C@@H](c2cccc(-c3csc(NC(=O)CNC(=O)c4ccn(S(C)(=O)=O)c4)n3)c2)C1 [Compound 479] | > 10 nM | > 10 nM
49 | CC(C)(C)n1ccc(C(=O)NCC(=O)Nc2nc(-c3cccc(C4CC(F)(F)C4)n3)cs2)c1 [Compound 481] | > 100 nM | > 100 nM
50 | CC(C)(F)COc1cccc(-c2csc(NC(=O)CNC(=O)c3ccn(S(C)(=O)=O)c3)n2)c1 [Compound 483] | > 10 nM | > 10 nM
51 | CC(C)(F)COc1cccc(-c2csc(NC(=O)CNC(=O)c3ccn(C4(C)COC4)c3)n2)c1 [Compound 484] | > 100 nM | > 100 nM
52 | COC[C@H](NC(=O)c1ccn(C(C)(C)C)c1)C(=O)Nc1nc(-c2cc(C)c3ccn(C)c(=O)c3c2)cs1 [Compound 485] | < 10 nM | < 10 nM
53 | CS(=O)(=O)n1ccc(C(=O)NCC(=O)Nc2nc(-c3ccc4c(c3)N(CC3COC3)CC4)cs2)c1 [Compound 486] | > 10 nM | > 10 nM
54 | CS(=O)(=O)n1ccc(C(=O)NCC(=O)Nc2nc(-c3ccc4c(c3)N(CC(F)F)CC4)cs2)c1 [Compound 487] | > 10 nM | > 10 nM
55 | C[C@H](NC(=O)c1ccn(C(C)(C)C)c1)C(=O)Nc1nc(-c2cccc(-c3cnn(C)n3)n2)cs1 [Compound 488] | > 100 nM | > 100 nM
56 | CS(=O)(=O)n1ccc(C(=O)NCC(=O)Nc2nc(-c3ccnc(OC4CC4)c3)cs2)c1 [Compound 489] | > 10 nM | > 10 nM
57 | Cn1ncc2ccc(-c3csc(NC(=O)CNC(=O)c4ccn(C(C)(C)C)c4)n3)cc2c1=O [Compound 492] | > 10 nM | > 10 nM
